{"source": "ChEMBL document CHEMBL5584305", "about": "“Cladoic Acid, an Anti-Trypanosoma cruzi Polyketide from Cladosporium sp. TP-F2020” (J Nat Prod, 2024)", "key": {"Trichophyton rubrum": {"tested_on": "Trichophyton rubrum", "assay": "Antimicrobial activity against Trichophyton rubrum NBRC5467 at 100 microg/ml incubated for 20 hrs by liquid microculture method", "type": "functional, organism-based", "details": "dose 100.0 µg/ml"}, "Saccharomyces cerevisiae": {"tested_on": "Saccharomyces cerevisiae", "assay": "Antimicrobial activity against Saccharomyces cerevisiae S100 at 100 microg/ml incubated for 20 hrs by liquid microculture method", "type": "functional, organism-based", "details": "dose 100.0 µg/ml"}, "Trypanosoma cruzi [1]": {"tested_on": "Trypanosoma cruzi", "assay": "Antitrypanosomal activity against Trypanosoma cruzi Tulahuen amastigotes infected in human HT-1080 cells assessed as inhibition of parasite growth incubated for 3 days by light microscopic analysis", "type": "functional, organism-based", "details": "HT-1080, 72 h"}, "Staphylococcus aureus": {"tested_on": "Staphylococcus aureus", "assay": "Antimicrobial activity against Staphylococcus aureus FDA209P JC-1 at 100 microg/ml incubated for 20 hrs by liquid microculture method", "type": "functional, organism-based", "details": "dose 100.0 µg/ml"}, "[2]": {"tested_on": "Agrobacterium radiobacter", "assay": "Antimicrobial activity against Rhizobium radiobacter NBRC14554 at 100 microg/ml incubated for 20 hrs by liquid microculture method", "type": "functional, organism-based", "details": "dose 100.0 µg/ml"}, "Escherichia coli": {"tested_on": "Escherichia coli", "assay": "Antimicrobial activity against Escherichia coli NIHJ JC-2 at 100 microg/ml incubated for 20 hrs by liquid microculture method", "type": "functional, organism-based", "details": "dose 100.0 µg/ml"}, "Trypanosoma cruzi [3]": {"tested_on": "Trypanosoma cruzi", "assay": "Antitrypanosomal activity against Trypanosoma cruzi epimastigote assessed as inhibition of proliferation by measuring cellular ATP level incubated for 24 hrs by Cell Titer-Glo 2.0 assay", "type": "functional, organism-based"}, "Kocuria rhizophila": {"tested_on": "Kocuria rhizophila", "assay": "Antimicrobial activity against Kocuria rhizophila ATCC 9341 at 100 microg/ml incubated for 20 hrs by liquid microculture method", "type": "functional, organism-based", "details": "dose 100.0 µg/ml"}, "[4]": {"assay": "Cytotoxicity against mouse P388 cells at 100 uM", "type": "toxicity, cell-based"}, "Candida albicans": {"tested_on": "Candida albicans", "assay": "Antimicrobial activity against Candida albicans NBRC0197 at 100 microg/ml incubated for 20 hrs by liquid microculture method", "type": "functional, organism-based", "details": "dose 100.0 µg/ml"}, "[5]": {"tested_on": "Colletotrichum gloeosporioides", "assay": "Antimicrobial activity against Glomerella cingulata NBRC5907 at 100 microg/ml incubated for 20 hrs by liquid microculture method", "type": "functional, organism-based", "details": "dose 100.0 µg/ml"}}, "note": "Active and inactive are the calls of the source. The calls are words filed in the database; no cut-off is given here.", "data": [{"smiles": "C\\C(=C/C=C/C=C/[C@H]1[C@@H](C)[C@H](O)[C@@H](O)[C@H]2[C@H](O)[C@@H](C)C[C@@H](C)[C@H]12)C(=O)O", "values": [{"measurement": "Activity", "setting": "Trichophyton rubrum", "result": "inactive"}, {"measurement": "Activity", "setting": "Saccharomyces cerevisiae", "result": "inactive"}, {"measurement": "IC50", "setting": "Trypanosoma cruzi [1]", "result": 27, "unit": "µM"}, {"measurement": "Activity", "setting": "Staphylococcus aureus", "result": "inactive"}, {"measurement": "Activity", "setting": "[2]", "result": "inactive"}, {"measurement": "Activity", "setting": "Escherichia coli", "result": "inactive"}, {"measurement": "IC50", "setting": "Trypanosoma cruzi [3]", "result": 46, "unit": "µM"}, {"measurement": "Activity", "setting": "Kocuria rhizophila", "result": "inactive"}, {"measurement": "Activity", "setting": "[4]", "result": "Non-Toxic"}, {"measurement": "Activity", "setting": "Candida albicans", "result": "inactive"}, {"measurement": "Activity", "setting": "[5]", "result": "inactive"}]}]}
